Experimental findings from ChEMBL document CHEMBL1287695, “Cholesterol-derived novel anti-apoptotic agents on the structural basis of ginsenoside Rk1” (Bioorg Med Chem Lett, 2010) are described below.

Type in all cases: functional, cell-based
Holding throughout (settings): Homo sapiens

In assay [1] the test system is HUVEC. The assay is described as follows: Antiapoptotic activity against HUVEC cells at 5 ug/ml after 24 hrs by MTT calorimetric assay. In general terms: Tetrazolium dyes change colour on reduction, which living cells bring about.
The test system of assay [2] is HUVEC. The assay is described as follows: Antiapoptotic activity against HUVEC cells at 10 ug/ml after 24 hrs by MTT calorimetric assay.
Assay [3] relates to HUVEC. Briefly: Antiapoptotic activity against HUVEC cells at 10 ug/ml after 48 hrs by MTT calorimetric assay.
Assay [4] concerns HUVEC. The assay is described as follows: Antiapoptotic activity against HUVEC cells at 5 ug/ml after 48 hrs by MTT calorimetric assay.
Assay [5] relates to HUVEC. Briefly: Antiapoptotic activity against HUVEC cells assessed as inhibition of DNA condensation and fragmentation after 48 hrs by TUNEL assay.
Assay [6] concerns HUVEC. Briefly: Antiapoptotic activity against HUVEC cells assessed as inhibition of DNA condensation and fragmentation after 48 hrs by DAPI staining.
A further assay concerns HREC. Briefly: Antiapoptotic activity against HREC cells assessed as cell viability after 48 hrs.

The source made the active and inactive calls. The rule behind the calls is not given here.

For `CC(C)CCC[C@@H](C)[C@H]1CC[C@H]2[C@@H]3CC=C4C[C@@H](O[C@@H]5O[C@H](CO)[C@@H](O)[C@H](O)[C@H]5O)CC[C@]4(C)[C@H]3CC[C@]12C`, the outcome with HUVEC [1], in the assay on HUVEC [2], in the assay on HUVEC [3] and with HUVEC [4] was inactive.
Turning to `CC(C)CCC[C@@H](C)[C@H]1CC[C@H]2[C@@H]3CC=C4C[C@@H](Oc5ccc6ccccc6c5)CC[C@]4(C)[C@H]3CC[C@]12C`, the result with HUVEC [1] and in the assay on HUVEC [4] was Active.
For the compound `C=CCO[C@H]1CC[C@@]2(C)C(=CC[C@H]3[C@@H]4CC[C@H]([C@H](C)CCCC(C)C)[C@@]4(C)CC[C@@H]32)C1`, the result in the assay on HUVEC [1] and in the assay on HUVEC [4] was Active.
Consider `COCCOCO[C@H]1CC[C@@]2(C)C(=CC[C@H]3[C@@H]4CC[C@H]([C@H](C)CCCC(C)C)[C@@]4(C)CC[C@@H]32)C1`, for which the outcome in the assay on HUVEC [1] and with HUVEC [4] was Active.
With `C=C(CCC=C(C)C)[C@H]1CC[C@]2(C)[C@@H]1[C@H](O)C[C@@H]1[C@@]3(C)CC[C@H](O[C@@H]4O[C@H](CO)[C@@H](O)[C@H](O)[C@H]4O[C@@H]4O[C@H](CO)[C@@H](O)[C@H](O)[C@H]4O)C(C)(C)[C@@H]3CC[C@]12C`, the result with HUVEC [1], in the assay with HUVEC [2], with HUVEC [3] and in the assay on HUVEC [4] was Active.
For `CC(=O)OC[C@H]1O[C@@H](O[C@H]2CC[C@@]3(C)C(=CC[C@H]4[C@@H]5CC[C@H]([C@H](C)CCCC(C)C)[C@@]5(C)CC[C@@H]43)C2)C=C[C@@H]1OC(C)=O`, the outcome in the assay on HUVEC [5], in the assay on HUVEC [1], with HUVEC [6], with HREC, in the assay with HUVEC [2] and in the assay with HUVEC [3] was Active. For the same compound, the result with HUVEC [4] was Active.
For the compound `COC[C@H]1O[C@@H](O[C@H]2CC[C@@]3(C)C(=CC[C@H]4[C@@H]5CC[C@H]([C@H](C)CCCC(C)C)[C@@]5(C)CC[C@@H]43)C2)C[C@@H](OC)[C@@H]1OC`, the result in the assay with HUVEC [1], in the assay on HUVEC [2], with HUVEC [3] and in the assay on HUVEC [4] was inactive.
With `COC[C@H]1O[C@@H](O[C@H]2CC[C@@]3(C)C(=CC[C@H]4[C@@H]5CC[C@H]([C@H](C)CCCC(C)C)[C@@]5(C)CC[C@@H]43)C2)C=C[C@@H]1OC`, the result in the assay on HUVEC [1], in the assay with HUVEC [2], in the assay with HUVEC [3] and in the assay on HUVEC [4] was Active.
In the case of `CC(C)CCC[C@@H](C)[C@H]1CC[C@H]2[C@@H]3CC=C4C[C@@H](OC/C=C/CO)CC[C@]4(C)[C@H]3CC[C@]12C`, the result in the assay on HUVEC [1] and with HUVEC [4] was Active.
With `CC(C)CCC[C@@H](C)[C@H]1CC[C@H]2[C@@H]3CC=C4C[C@@H](O[C@H]5C=C[C@H](O)[C@@H](CO)O5)CC[C@]4(C)[C@H]3CC[C@]12C`, the result in the assay with HUVEC [1], with HUVEC [2], in the assay on HUVEC [3] and in the assay on HUVEC [4] was inactive.
Consider `CC(C)CCC[C@@H](C)[C@H]1CC[C@H]2[C@@H]3CC=C4C[C@@H](O[C@H]5C[C@@H](O)[C@H](O)[C@@H](CO)O5)CC[C@]4(C)[C@H]3CC[C@]12C`, for which the outcome with HUVEC [1], in the assay with HUVEC [2], in the assay with HUVEC [3] and in the assay on HUVEC [4] was Active.
`CC(C)CCC[C@@H](C)[C@H]1CC[C@H]2[C@@H]3CC=C4C[C@@H](O[C@H]5CCCCO5)CC[C@]4(C)[C@H]3CC[C@]12C`: the result in the assay with HUVEC [5], in the assay with HUVEC [1], in the assay on HUVEC [6], in the assay on HREC, in the assay with HUVEC [2] and in the assay on HUVEC [3] was Active. The result in the assay on HUVEC [4] was Active.
